Several values for one entry are separate records, joined by “and”; a condition that tells them apart may be missing. Equal values may be shown once. Inconclusive results and toxic doses are left out.
Tested on: P388 leukemia ip, CD2F1 mice, survival T/C
Test: NCI In Vivo Anticancer Drug Screen. Data for tumor model P388 Leukemia (intraperitoneal) in CD2F1 (CDF1) mice
Conditions: endpoint: median survival time, higher = longer survival
In short: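 Mice carrying the transplanted tumor received test compound or vehicle. Survival was recorded in each group, and the value is the treated-group measurement divided by that of the vehicle-treated control group.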

[1] = dose: 50.0 mg/kg/injection, schedule: Q01DX009 (ip), vehicle: saline with Tween-80
[2] = dose: 100.0 mg/kg/injection, schedule: Q01DX009 (ip), vehicle: saline with Tween-80
[3] = dose: 50.0 mg/kg/injection, schedule: Q04DX003 (ip), vehicle: saline with Tween-80
[4] = dose: 100.0 mg/kg/injection, schedule: Q04DX003 (ip), vehicle: saline with Tween-80
[5] = dose: 200.0 mg/kg/injection, schedule: Q01DX009 (ip), vehicle: saline with Tween-80
[6] = dose: 400.0 mg/kg/injection, schedule: Q01DX009 (ip), vehicle: saline with Tween-80

Cc1ccc(C)c(NC(=O)C(=O)C(C#N)c2c(Cl)cccc2Cl)c1 (configuration not stated)
T/C (dose: 60.0 mg/kg/injection, schedule: Q01DX005 (ip), vehicle: saline with Tween-80): 96 % of control
T/C (dose: 120.0 mg/kg/injection, schedule: Q01DX005 (ip), vehicle: saline with Tween-80): 102 % of control
T/C (dose: 240.0 mg/kg/injection, schedule: Q01DX005 (ip), vehicle: saline with Tween-80): 99 % of control

Cc1cc2c(c(C#N)c1C)NC=NC2C (configuration not stated)
T/C [1]: 94 % of control
T/C [2]: 105 % of control

CCCCC1CN=C(OCC)N1 (configuration not stated)
T/C (dose: 6.25 mg/kg/injection, schedule: Q01DX005 (ip), vehicle: saline with Tween-80): 104 % of control
T/C (dose: 12.5 mg/kg/injection, schedule: Q01DX005 (ip), vehicle: saline with Tween-80): 98 % of control

COC(=O)C(=O)C(C)C(=O)C(C)c1nc2n(c1O)C(=N)N=N2 (configuration not stated)
T/C (dose: 50.0 mg/kg/injection, schedule: Q01DX005 (ip), vehicle: saline): 98 % of control
T/C (dose: 100.0 mg/kg/injection, schedule: Q01DX005 (ip), vehicle: saline): 97 % of control
T/C (dose: 200.0 mg/kg/injection, schedule: Q01DX005 (ip), vehicle: saline): 96 % of control

CCOC(=O)Cc1csc(=S)n1C
T/C (dose: 50.0 mg/kg/injection, schedule: Q01DX005 (ip), vehicle: saline with Tween-80): 102 % of control
T/C (dose: 100.0 mg/kg/injection, schedule: Q01DX005 (ip), vehicle: saline with Tween-80): 109 % of control
T/C (dose: 200.0 mg/kg/injection, schedule: Q01DX005 (ip), vehicle: saline with Tween-80): 109 % of control

C=CCNC(=S)NC(c1ccc(OC)cc1)C(CC)c1ccc(OC)cc1 (configuration not stated)
T/C (dose: 100.0 mg/kg/injection, schedule: Q04DX002 (ip), vehicle: saline with Tween-80): 100 % of control
T/C (dose: 200.0 mg/kg/injection, schedule: Q04DX002 (ip), vehicle: saline with Tween-80): 101 % of control
T/C (dose: 400.0 mg/kg/injection, schedule: Q04DX002 (ip), vehicle: saline with Tween-80): 106 % of control

CC(C)(C)SC(=O)C[Si](C)(C)C
T/C [3]: 103 % of control and 105 % of control
T/C [4]: 107 % of control and 94 % of control
T/C (dose: 200.0 mg/kg/injection, schedule: Q04DX003 (ip), vehicle: saline with Tween-80): 111 % of control and 118 % of control
T/C (dose: 400.0 mg/kg/injection, schedule: Q04DX003 (ip), vehicle: saline with Tween-80): 110 % of control

Cc1cnc2ccccc2c1/C=C/c1ccc(N(C)C)cc1
T/C [1]: 124 % of control
T/C [5]: 153 % of control
T/C [6]: 120 % of control

OCCN1CCN(CC/C=C2\c3ccccc3Sc3ccc(Cl)cc32)CC1
T/C (dose: 3.13 mg/kg/injection, schedule: Q01DX009 (ip), vehicle: saline): 102 % of control
T/C (dose: 6.25 mg/kg/injection, schedule: Q01DX009 (ip), vehicle: saline): 113 % of control
T/C (dose: 11.0 mg/kg/injection, schedule: Q01DX009 (ip), vehicle: saline with Tween-80): 109 % of control
T/C (dose: 50.0 mg/kg/injection, schedule: Q04DX003 (ip), vehicle: saline): 88 % of control

O=C(c1ccccc1)C1(c2ccccc2)CC1
T/C [1]: 104 % of control
T/C [2]: 104 % of control
T/C [5]: 104 % of control
T/C [6]: 99 % of control

Cc1nc2c([N+](=O)[O-])c(N3CCN(C)CC3)c([N+](=O)[O-])cc2[nH]1
T/C (dose: 12.5 mg/kg/injection, schedule: Q04DX003 (ip), vehicle: saline with Tween-80): 95 % of control
T/C (dose: 25.0 mg/kg/injection, schedule: Q04DX003 (ip), vehicle: saline with Tween-80): 106 % of control
T/C [3]: 100 % of control and 90 % of control
T/C [4]: 104 % of control

FC(F)(F)C(Cl)(c1ccc(Cl)cc1)c1ccc(Cl)cc1
T/C (dose: 50.0 mg/kg/injection, schedule: Q01DX005 (sc), vehicle: olive oil, sesame oil, peanut oil): 96 % of control
T/C (dose: 100.0 mg/kg/injection, schedule: Q01DX005 (sc), vehicle: olive oil, sesame oil, peanut oil): 96 % of control
T/C (dose: 200.0 mg/kg/injection, schedule: Q01DX005 (sc), vehicle: olive oil, sesame oil, peanut oil): 95 % of control
T/C (dose: 400.0 mg/kg/injection, schedule: Q01DX005 (sc), vehicle: olive oil, sesame oil, peanut oil): 100 % of control

COc1ccc(NC(=O)N2CCOCC2)cc1
T/C (dose: 50.0 mg/kg/injection, schedule: Q01DX009 (ip), vehicle: saline): 92 % of control
T/C (dose: 100.0 mg/kg/injection, schedule: Q01DX009 (ip), vehicle: saline): 92 % of control
T/C (dose: 200.0 mg/kg/injection, schedule: Q01DX009 (ip), vehicle: saline): 88 % of control
